Values quoted from earlier work in patent US20200115358A1, “ICARIIN AND ICARITIN DERIVATIVES” (H. LEE MOFFITT CANCER CENTER AND RESEARCH INSTITUTE, INC., priority 2016, published 2020).

Test system: MDSCs

For Icariin, the “inflammatory responses associated with MDSCs” value is listed as “effectively inhibit”.
In the case of `COc1ccc(-c2oc3c(CCC(C)(C)O)c(O)cc(O)c3c(=O)c2O)cc1` [ICT], the “inflammatory responses associated with MDSCs” value is given as “effectively inhibit”.
